Data set [1] concerns the target T1, recombinant 20α-HSD (Rattus norvegicus, UniProt P51652).
T1 sequence (P51652 1-323): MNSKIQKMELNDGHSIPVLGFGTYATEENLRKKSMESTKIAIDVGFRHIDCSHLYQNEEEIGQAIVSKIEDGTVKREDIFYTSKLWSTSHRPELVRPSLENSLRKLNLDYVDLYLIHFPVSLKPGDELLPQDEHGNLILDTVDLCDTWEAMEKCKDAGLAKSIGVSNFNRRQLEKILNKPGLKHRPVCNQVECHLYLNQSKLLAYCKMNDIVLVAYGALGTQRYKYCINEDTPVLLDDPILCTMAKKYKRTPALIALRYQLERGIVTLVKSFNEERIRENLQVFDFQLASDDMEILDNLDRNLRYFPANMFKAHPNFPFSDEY
The data set can be described thus: Substrate specificity, oxidation/reduction of steroid substrates, spectrophotometric. It is filed as biochemical. The arrangement: a DNA fragment of 1.2 Kb containing the entire coding region of 20α-HSD; GST (E. coli preparation only; removed with thrombin) (N, cleaved yes); made in house; host or cells: E. coli DH5α (pGEX-4T-2) and Sf-9 insect cells (baculovirus, pBlueBacIII). Conditions: for Recombinant 20α HSD activity, expressed in E. coli: enzyme expressed in E. coli; for Recombinant 20α HSD activity, expressed in E. coli / Recombinant 20α HSD activity, expressed in Sf-9 cells: spectrophotometric; for Recombinant 20α HSD activity, expressed in Sf-9 cells: enzyme expressed in Sf-9 cells. Here is the method: (§1) Enzyme activity of the recombinant 20α-HSD was determined by the rate of conversion of [1-2^3 H]-20α-hydroxy-pregn-4-ene-3-one (20α-hydroxprogesterone) to [1,2^3 H]progesterone in the presence of NADPH as described by Jones & Hsueh [J. Biol. Chem. 256:1248-1254 (1981)]. Enzyme activity was measured in this manner due to the fact that in an in vitro setting the reaction may be reversed, i.e. conversion of 20α-hydroxyprogesterone to progesterone. The assay mixtures (0.05 ml) contained 100 μM [1,2^3 H]hydroxyprogesterone [Dupont-New England Nuclear Research Products, Boston Mass.] […] Following incubation at 37° C. for 30 minutes, the [^3 H]progesterone content of each sample was determined after isolation by thin layer chromatography isolation. One unit of enzyme activity is defined as that amount of enzyme catalyzing the formation of 1 nmol of [^3 H]progesterone/minute from [1,2^3 H]hydroxyprogesterone. Specific activity is expressed as units/min/mg protein. The protein concentration was determined by the Bradford method using bovine serum albumin [Sigma Chemical Co, St. Louis, Mo.] as the standard [Bradford, Anal. Biochem. 72:248-254 (1976)]. […] Acta. 799:51-58 (1984); Noda et al., Biochim Biophys. Acta. 1079:112-118 (1991)].
To determine substrate specificity of recombinant 20α-HSD, the oxidation/reduction of several steroid substrates was also studied. […] Acta. 799:51-58 (1984); Noda et al., Biochim Biophys. Acta. 1079:112-118 (1991)]. […] However, compared to 20α-hydroxyprogesterone, 20α-HSD activity toward 17α-hydroxyprogesterone was lower, and its activity with progesterone was relatively higher.
The enzyme activity was measured spectrophotometrically. The data are expressed as the mean of duplicate determinations from three separate experiments. ND, not detected.

In data set [2] the target is T1, recombinant 20α-HSD. Kind of data set: Steady state kinetic constants (Lineweaver-Burk). It is filed as biochemical. The arrangement: a DNA fragment of 1.2 Kb containing the entire coding region of 20α-HSD; GST (E. coli preparation only; removed with thrombin) (N, cleaved yes); made in house; host or cells: E. coli DH5α (pGEX-4T-2) and Sf-9 insect cells (baculovirus, pBlueBacIII). Conditions: for concentration at which enzyme activity reached saturation / maximal activity: bacterially expressed enzyme, other reactant fixed (NADP 1 mM or 20α-hydroxyprogesterone 100 μM). The text has this:
The data were transformed into a reciprocal Lineweaver-Burk plot to calculate the Km and maximum velocity (Vmax) values.

Data set [3] concerns the target T1, recombinant 20α-HSD. The data set can be described thus: Aldo-keto (aldose/aldehyde) reductase activity, spectrophotometric NADPH oxidation at 340 nm. It is filed as biochemical. Conditions: for activity relative to that observed with 20α-hydroxyprogesterone: maximal activity among aldose/aldehyde reductase substrates; for reduction of substrate by 20α-HSD (in words): purified recombinant 20α-HSD proteins. The arrangement: a DNA fragment of 1.2 Kb containing the entire coding region of 20α-HSD; GST (E. coli preparation only; removed with thrombin) (N, cleaved yes); made in house; host or cells: E. coli DH5α (pGEX-4T-2) and Sf-9 insect cells (baculovirus, pBlueBacIII). Here is the method:
Aldo-keto reductase activity of the recombinant 20α-HSD was assayed spectrophotometrically by measuring the rate of oxidation of NADPH at 340 nm at 37° C. using a saturating concentration of benzaldehyde, 2-nitrobenzaldehyde, D,L -glyceraldehyde methylgloxal, 9,10-phenanthrequinone or ^D -galactose [Azhar et al., Biochemistry 26:7047-7057 (1987)].

Substrate in data set [4]: NC(=O)c1ccc[n+]([C@@H]2O[C@H](COP(=O)([O-])OP(=O)(O)OC[C@H]3O[C@@H](n4cnc5c(N)ncnc54)[C@H](OP(=O)(O)O)[C@@H]3O)[C@@H](O)[C@H]2O)c1
The data set can be described thus: purified protein, by the assay type.

Substrate in data set [5]: C[C@H](O)[C@H]1CC[C@H]2[C@@H]3CCC4=CC(=O)CC[C@]4(C)[C@H]3CC[C@]12C
Kind of data set: Steady state kinetic constants (Lineweaver-Burk). In kind it is biochemical, rat.

Data set [6] concerns the target T1, recombinant 20α-HSD. The data set can be described thus: 20α-HSD enzyme activity: conversion of [3H]20α-hydroxyprogesterone to [3H]progesterone. It is filed as biochemical. The arrangement: a DNA fragment of 1.2 Kb containing the entire coding region of 20α-HSD; GST (E. coli preparation only; removed with thrombin) (N, cleaved yes); made in house; host or cells: E. coli DH5α (pGEX-4T-2) and Sf-9 insect cells (baculovirus, pBlueBacIII). The settings on record: for Mean Specific Activity ± SE: purified recombinant enzyme, Table 3. As to the method:
as §1

Setting [7] is: other: enzyme expressed in E. coli, other reactant fixed (NADP 1 mM or 20α-hydroxyprogesterone 100 μM).
The mark [8] stands for this setting: other: enzyme expressed in Sf-9 cells (baculovirus).

Turning to `CC(=O)[C@@]1(O)CC[C@H]2[C@@H]3CCC4=CC(=O)CC[C@]4(C)[C@H]3CC[C@@]21C` [17α-Hydroxyprogesterone], at recombinant 20α-HSD [1], the “Recombinant 20α HSD activity, expressed in E. coli” value is given as 97 nmol/min/mg protein and the “Recombinant 20α HSD activity, expressed in Sf-9 cells” value came to 85 nmol/min/mg protein.

Regarding `C[C@H](O)[C@H]1CC[C@H]2[C@@H]3CCC4=CC(=O)CC[C@]4(C)[C@H]3CC[C@]12C` [20α-Hydroxyprogesterone, 20α-hydroxy-pregn-4-ene-3-one], at recombinant 20α-HSD [1], the “Recombinant 20α HSD activity, expressed in E. coli” value turned out to be 321 nmol/min/mg protein and the “Recombinant 20α HSD activity, expressed in Sf-9 cells” value is listed as 250 nmol/min/mg protein. The “concentration at which enzyme activity reached saturation / maximal activity” value at recombinant 20α-HSD [2] is given as “around 10 μM”. As to `CC(=O)[C@H]1CC[C@H]2[C@@H]3CCC4=CC(=O)CC[C@]4(C)[C@H]3CC[C@]12C` [Progesterone], at recombinant 20α-HSD [1], the “Recombinant 20α HSD activity, expressed in E. coli” value was 459 nmol/min/mg protein and the “Recombinant 20α HSD activity, expressed in Sf-9 cells” value came out at 352 nmol/min/mg protein. `C[C@]12C[C@H](O)[C@H]3[C@@H](CCC4=CC(=O)CC[C@@]43C)[C@@H]1CC[C@@H]2C(=O)CO` [Corticosterone]: the “action of recombinant 20α-HSD on substrate (in words)” value on recombinant 20α-HSD [1] is “did not act on”.

For the molecule `NC(=O)c1ccc[n+]([C@@H]2O[C@H](COP(=O)([O-])OP(=O)(O)OC[C@H]3O[C@@H](n4cnc5c(N)ncnc54)[C@H](OP(=O)(O)O)[C@@H]3O)[C@@H](O)[C@H]2O)c1` [NADP], the “concentration at which enzyme activity reached saturation / maximal activity” value on recombinant 20α-HSD [2] is on record as “about 100 μM”. As to `C[C@]12CCC(=O)C[C@@H]1CC[C@@H]1[C@@H]2CC[C@]2(C)[C@@H](O)CC[C@@H]12` [5α-dihydrotestosterone], the “action of recombinant 20α-HSD on substrate (in words)” value at recombinant 20α-HSD [1] is recorded as “did not act on”. For `O=CC(O)CO` (racemic) [D,L -Glyceraldehyde], on recombinant 20α-HSD [3], the “activity relative to that observed with 20α-hydroxyprogesterone” value is “approximately a third” and the “reduction of substrate by 20α-HSD (in words)” value (“reduction of substrate” for short) is reported as “very efficiently”. As for `O=Cc1ccccc1` [Benzaldehyde], at recombinant 20α-HSD [3], the “activity relative to that observed with 20α-hydroxyprogesterone” value is “approximately a third” and the “reduction of substrate” value is “very efficiently”.

Consider `O=Cc1ccc([N+](=O)[O-])cc1` [4-Nitrobenzaldehyde], for which, at recombinant 20α-HSD [3], the “reduction of substrate” value is “very efficiently”.

B1: recombinant 20α-HSD (Rattus norvegicus) (protein)
chain: MNSKIQKMELNDGHSIPVLGFGTYATEENLRKKSMESTKIAIDVGFRHIDCSHLYQNEEEIGQAIVSKIEDGTVKREDIFYTSKLWSTSHRPELVRPSLENSLRKLNLDYVDLYLIHFPVSLKPGDELLPQDEHGNLILDTVDLCDTWEAMEKCKDAGLAKSIGVSNFNRRQLEKILNKPGLKHRPVCNQVECHLYLNQSKLLAYCKMNDIVLVAYGALGTQRYKYCINEDTPVLLDDPILCTMAKKYKRTPALIALRYQLERGIVTLVKSFNEERIRENLQVFDFQLASDDMEILDNLDRNLRYFPANMFKAHPNFPFSDEY
notes: a DNA fragment of 1.2 Kb containing the entire coding region of 20α-HSD; GST (E. coli preparation only; removed with thrombin) (N, cleaved yes); made in house; host or cells: E. coli DH5α (pGEX-4T-2) and Sf-9 insect cells (baculovirus, pBlueBacIII)
B1: the Km in data set [4] (setting [7]) worked out at 9.5 µM; in data set [4] (setting [8]), 9.6 µM; in data set [5] (setting [7]), 5.9 µM; in data set [5] (setting [8]), 5.8 µM.

B2: recombinant 20α-HSD expressed in E. coli: rat 20α-HSD expressed as GST fusion in E. coli DH5α, thrombin-cleaved and purified (protein, UniProt P51652 1-323, looked up)
Aldo-keto reductase family 1 …: MNSKIQKMELNDGHSIPVLGFGTYATEENLRKKSMESTKIAIDVGFRHIDCSHLYQNEEEIGQAIVSKIEDGTVKREDIFYTSKLWSTSHRPELVRPSLENSLRKLNLDYVDLYLIHFPVSLKPGDELLPQDEHGNLILDTVDLCDTWEAMEKCKDAGLAKSIGVSNFNRRQLEKILNKPGLKHRPVCNQVECHLYLNQSKLLAYCKMNDIVLVAYGALGTQRYKYCINEDTPVLLDDPILCTMAKKYKRTPALIALRYQLERGIVTLVKSFNEERIRENLQVFDFQLASDDMEILDNLDRNLRYFPANMFKAHPNFPFSDEY
modifications: expressed in E. coli; GST tag thrombin-cleaved
notes: rat 20α-HSD expressed as GST fusion in E. coli DH5α, thrombin-cleaved and purified
B2: in the data set with recombinant 20α-HSD [6] (purified enzyme from bacterial expression system), the “average specific activity of the purified preparations” value is 332 ±47 nmol/min/mg protein. Besides, the “Mean Specific Activity ± SE” value with recombinant 20α-HSD [6] worked out at 332 ± 47 nmol/min - mg protein. The “Vmax values higher than those of 20α-HSD expressed in insect cells” value in the data set with recombinant 20α-HSD [2] (similar assay conditions) is 20-30%.

B3: recombinant 20α-HSD expressed in Sf-9 cells: rat 20α-HSD expressed in baculovirus-infected Sf-9 insect cells and purified (protein, UniProt P51652 1-323, looked up)
Aldo-keto reductase family 1 …: MNSKIQKMELNDGHSIPVLGFGTYATEENLRKKSMESTKIAIDVGFRHIDCSHLYQNEEEIGQAIVSKIEDGTVKREDIFYTSKLWSTSHRPELVRPSLENSLRKLNLDYVDLYLIHFPVSLKPGDELLPQDEHGNLILDTVDLCDTWEAMEKCKDAGLAKSIGVSNFNRRQLEKILNKPGLKHRPVCNQVECHLYLNQSKLLAYCKMNDIVLVAYGALGTQRYKYCINEDTPVLLDDPILCTMAKKYKRTPALIALRYQLERGIVTLVKSFNEERIRENLQVFDFQLASDDMEILDNLDRNLRYFPANMFKAHPNFPFSDEY
modifications: expressed in baculovirus Sf-9 cells
notes: rat 20α-HSD expressed in baculovirus-infected Sf-9 insect cells and purified
On to B3, for which the “Mean Specific Activity ± SE” value in the data set with recombinant 20α-HSD [6] came out at 259 ± 36 nmol/min - mg protein.

For the origin of these results see US6001353A, “20α-alpha-hydroxy steroid dehydrogenase related material and methods” (priority 1997, dated 1999).
